Measured values published in patent US6664269B2, “Isoquinolinone derivatives” (Maybridge plc, priority 2001, dated 2003).

Columns and labels:
HeLa cells = assay: Dose Enhancing Factor: potentiation of bleomycin cell growth inhibition (SRB assay); format: cell-based; details: test compound 25 μM, bleomycin 0.5 μg/ml
Description: The Dose Enhancing Factor (DEF) is a ratio of the enhancement of cell growth inhibition elicited by the test compound in the presence of bleomycin compared to bleomycin alone. The test compounds were used at a fixed concentration of 25 μM. Bleomycin was used at a concentration of 0.5 μg/ml. The DEF was calculated from the formula: [formula]
GrowthTC is cell growth in presence of the test compound;
GrowthControl is cell growth of control cells;
Growthbleo is cell growth in presence of bleomycin; and
Growth(bleo+TC) is cell growth in presence of bleomycin and the test compound.
Cell growth was assessed using the sulforhodamine B (SRB) assay (Skehan, P., et al., 1990, J. Natl. Cancer Inst., 82, 1107-1112). 2,000 HeLa cells were seeded into each well of a flat-bottomed 96-well microtiter plate in a volume of 100 μl and incubated for 6 hours at 37° C. Cells were either replaced with media alone or with media containing the test compound at a final concentration of 25 μM. Cells were allowed to grow for a further 1 hour before the addition of bleomycin to either untreated cells or test compound treated cells. Cells untreated with either bleomycin or test compound were used as a control. Cells treated with test compound alone were used to assess the growth inhibition by the test compound.
Cells were left for a further 16 hours before replacing the media and allowing the cells to grow for a further 72 hours at 37° C. The media was then removed and the cells fixed with 100 μl of ice cold 10% (w/v) trichloroacetic acid. The plates were incubated at 4° C. for 20 minutes and then washed four times with water. Each well of cells was then stained with 100 μl of 0.4% (w/v) SRB in 1% acetic acid for 20 minutes before washing four times with 1% acetic acid. Plates were then dried for 2 hours at room temperature. The dye from the stained cells was solubilized by the addition of 100 μl of 10 mM Tris Base into each well. Plates were gently shaken and left at room temperature for 30 minutes before measuring the optical density at 564 nm on a Microquant microtiter plate reader.

Row | SMILES | melting point [°C] | DEF (Dose Enhancing Factor) (HeLa cells)
1 | O=c1[nH]cc(Cc2ccc(F)c(F)c2)c2ccccc12 [Compound 10, 4-(3,4-Difluorobenzyl)-1-isoquinolinone] | 148 to 150 | –
2 | O=c1[nH]c(Cc2ccccc2)cc2ccccc12 [Compound 5, 3-Benzyl-1-isoquinolinone] | 193 to 195 | 1.1
3 | COc1ccc(Cc2cc3ccccc3c(=O)[nH]2)cc1 [Compound 1, 3-(4-methoxybenzyl)-1-isoquinolinone] | 216 to 218 | 1.15
4 | O=c1[nH]c(Cc2ccc(F)cc2)cc2ccccc12 [Compound 6, 3-(4-Fluorobenzyl)-1-isoquinolinone] | 238 to 240 | –
5 | O=c1[nH]cc(Cc2cccc(F)c2)c2ccccc12 [Compound 11, 4-(3-Fluorobenzyl)-1-isoquinolinone] | 132 to 134 | –
6 | O=c1[nH]c(CCc2ccccc2)cc2ccccc12 [Compound 2, 3-(2-Phenylethyl)-1-isoquinolinone] | 198 to 200 | 1.4
7 | N#Cc1cccc(Cc2c[nH]c(=O)c3ccccc23)c1 [Compound 12, 4-(3-Cyanobenzyl)-1-isoquinolinone] | 85 to 88 | –
8 | CCC(c1ccccc1)c1cc2ccccc2c(=O)[nH]1 (stereo not drawn) [Compound 3, 3-(1-Phenylpropyl)-1-isoquinolinone] | 179 to 180 | –
9 | O=c1[nH]c(Cc2cccc(O)c2)cc2ccccc12 [Compound 7, 3-(3-hydroxybenzyl)isoquinolinone] | 225 to 227 | 1.2
10 | O=c1[nH]cc(Cc2ccccc2)c2ccccc12 [Compound 8, 4-benzyl-1-isoquinolinone] | 217 to 220 | –
11 | O=c1[nH]cc(Cc2ccc(F)cc2)c2ccccc12 [Compound 9, 4-(4-Fluorobenzyl)-1-isoquinolinone] | 185 to 188 | –
12 | O=c1[nH]cc(Cc2ccc(Br)cc2)c2ccccc12 [Compound 13, 4-(4-Bromobenzyl)-1-isoquinolinone] | 180 to 182 | –
13 | COc1cccc(Cc2cc3ccccc3c(=O)[nH]2)c1 [Compound 4, 3-(3-Methoxybenzyl)-1-isoquinolinone] | 208 to 210 | 1.2
